The results in this text go back to US20250002452A1, “BICYCLOPENTANE DERIVATIVES” (ICAGEN, LLC, priority 2022, published 2025).

The structures appear in SMILES notation.

This test has as its target human Kv7.2 (Homo sapiens (Human), UniProt O43526). The test is described as follows: SyncroPatch 384 electrophysiology, activation of Kv7.2 in CHO cells. Format: cell-based. The note with it: Kv7.2 activation max %, relative to 30 μM ML-213 max activation. The method, then: The potency of Kv7 uotentiators was determined using the SyncroPatch 384 (Nanion) high throughput electrophysiology platform.
CHO cells stably expressing either human Kv7.2, Kv7.4 or Kv7.5/7.3 under a constitutive CMV promoter were used for these studies. Cells were maintained in F12 Hams+1 mM L-glutamine (Hyclone) supplemented with 10% FBS (Sigma), 0.3× NEAA (Non-essential Gamino-acids) and 400ug/ml G418 at 37° C. in 5% CO2. Cells were cultured in T-225 flasks (Nunc) for 2-3 days to reach 85-95% confluence prior to electrophysiological recording.
Earle's balanced salt solution (in mM): 135 NaCl, 5.4 KCl, 5 Glucose, 2 CaCl2), 1 MgCl2, 5 HEPES, pH 7.4. Seal enhancer solution (in mM): 90 NaCl, 3 KCl, 35 CaCl2), 10 MgCl2, 10 HEPES, pH 7.4. Extracellular recording solution (in mM): 71 NaCl, 70 NMDG, 13 KCl, 5 Glucose, 2 CaCl2), 1 MgCl2, 10 HEPES, pH 7.4. Intracellular recording solution (in mM): 130 KF, 20 KCl, 4 EGTA, 10 HEPES, 2 EDTA, 0.01 Escin, pH 7.2.
Cells were harvested for electrophysiological recording upon reaching appropriate confluence. Cells were first washed in DPBS (Hyclone, Cat #SH30028.03) and then 2 ml of Accutase (MP Biomedicals #1000449) was added at 28° C. until ˜90% of cells were suspended. F12 HAM's media+1 mM L-glutamine (Hyclone, SH30026.02) was then added to the flask to dilute the accutase. Cells were then triturated until a single cell suspension was achieved, a cell count was performed, and cells were centrifuged for 2 min. at 1,000 rpm. Media was then aspirated, and cells were resuspended in Earle's balanced salt solution to a concentration of 0.75×10^6 cells/ml and allowed to recover for 25 min at 10° C.
At the beginning of each assay, 20 μl of cell suspension was dispensed into each well of a multi-hole 384-well SyncroPatch chip by the onboard pipettor. Cell sealing was initiated, and seal enhancer solution was added to facilitate seal formation. Upon completion of sealing, cells were washed 3 times with extracellular recording solution and the assay voltage protocol was started. Human Kv7.2, Kv7.4 or Kv7.5/7.3 channels were evaluated using a voltage protocol in which cells were voltage-clamped at a holding potential of −60 mV. Potassium currents were continuously activated with a series of three voltage steps to −30 mV for 3 seconds, 40 mV for 1 second and −90 mV for 4 seconds with 12 seconds between successive voltage sweeps. Potassium currents were measured from the −90 mV repolarizing step. Baseline current was assessed for 3.5 minutes prior to the addition of 5.6 μM zinc pyrithione (1μM for Kv7.4). Kv7.2, Kv7.4 or Kv7.5/7.3 current in the presence of zinc pyrithione was acquired over five minutes to allow channels to reach steady state activity prior to addition of test agents. Channel activity was monitored for three minutes preceding the addition of 30 μM ML-213 (3 minutes) to achieve maximum activation. 150 mM TEA with 10 μM XE-991 was applied for 2 minutes to measure the leak current during maximum inhibition of Kv7.2, Kv7.4 or Kv7.5/7.3 channels.
Example 61 Data Analysis Data were collected on the SyncroPatch platform using PatchControl software (Nanion) and processed and analyzed using DataControl Software (Nanion). Percent activation was calculated from potassium current as follows: The average current for the 5 sweeps in the presence of zinc pyrithione immediately preceding test agent addition was taken as the ‘control’ data. Likewise, the average potassium current in the presence of test agents 5 sweeps immediately preceding addition of 30 μM ML-213 was determined for ‘drug’ data. The average potassium current 5 sweeps immediately prior to addition of 150 mM TEA+10 μM XE-991 was determined for ‘max activation’ data while average currents from 5 sweeps immediately following addition of TEA was determined for ‘max inhibition’ data. […]
For the compound `COC12CC(NC(=O)NCc3cccc(C(F)(F)F)c3)(C1)C2` [Example 4, 1-(3-methoxy-1-bicyclo[1.1.1]pentanyl)-3-[[3-(trifluoromethyl)phenyl]methyl]urea], the Kv7.2 max worked out at 64%.
The compound `CC(NC(=O)NC12CC(C1)C2)c1cccc(OC(F)(F)F)c1` (centres unmarked) [Example 37, 1-(1-bicyclo[1.1.1]pentanyl)-3-[1-[3-(trifluoromethoxy)phenyl]ethyl]urea] came in with a Kv7.2 max of 44%.
The same measure for `O=C(NCc1ccc2c(c1)OC(F)(F)O2)NC12CC(C(F)(F)F)(C1)C2` [Example 33, 1-[(2,2-difluoro-1,3-benzodioxol-5-yl)methyl]-3-[3-(trifluoromethyl)-1-bicyclo[1.1.1]pentanyl]urea]: 58%; for `O=C(NCc1cccc(OC(F)F)c1)NC12CC(C(F)(F)F)(C1)C2` [Example 29, 1-[[3-(difluoromethoxy)phenyl]methyl]-3-[3-(trifluoromethyl)-1-bicyclo[1.1.1]pentanyl]urea]: 52%; for `O=C(NCc1cccc(OCF)c1)NC12CC(C(F)(F)F)(C1)C2` [Example 34, 1-[[3-(fluoromethoxy)phenyl]methyl]-3-[3-(trifluoromethyl)-1-bicyclo[1.1.1]pentanyl]urea]: 56%.
In the case of `O=C(NCc1cccc(C(F)(F)F)c1)NC12CC(C(F)(F)F)(C1)C2` [Example 7, 1-[3-(trifluoromethyl)-1-bicyclo[1.1.1]pentanyl]-3-[[3-(trifluoromethyl)phenyl]methyl]urea] it was 75%; in that of `[2H]C([2H])(NC(=O)NC12CC(C(F)(F)F)(C1)C2)c1cccc(C#N)c1` [Example 52, 1-[(3-cyanophenyl)-dideuteriomethyl]-3-[3-(trifluoromethyl)-1-bicyclo[1.1.1]pentanyl]urea], 42%; in that of `O=C(NCc1cccc(C(F)(F)F)c1)NC12CC(C1)C2` [Example 23, 1-(1-bicyclo[1.1.1]pentanyl)-3-[[3-(trifluoromethyl)phenyl]methyl]urea], 79%.
In turn, `O=C(N[C@H](CO)c1cccc(Br)c1)NC12CC(C(F)(F)F)(C1)C2` [Example 44, 1-[(1S)-1-(3-bromophenyl)-2-hydroxyethyl]-3-[3-(trifluoromethyl)-1-bicyclo[1.1.1]pentanyl]urea] displayed a Kv7.2 max of 40%.
The same measure for `O=C(N[C@@H](CO)c1cccc(OC(F)(F)F)c1)NC12CC(C(F)(F)F)(C1)C2` [Example 55, 1-[(1R)-2-hydroxy-1-[3-(trifluoromethoxy)phenyl]ethyl]-3-[3-(trifluoromethyl)-1-bicyclo[1.1.1]pentanyl]urea]: 77%; for `COC12CC(NC(=O)NCc3cccc(OC(F)(F)F)c3)(C1)C2` [Example 1, 1-(3-methoxy-1-bicyclo[1.1.1]pentanyl)-3-[[3-(trifluoromethoxy)phenyl]methyl]urea]: 73%.
The same measure for `O=C(NCc1cccc(S(F)(F)(F)(F)F)c1)NC12CC(C1)C2` [Example 39, 1-(1-bicyclo[1.1.1]pentanyl)-3-[[3-(pentafluoro-λ6-sulfanyl)phenyl]methyl]urea]: 75%; for `C[C@H](NC(=O)NC12CC(F)(C1)C2)c1cccc(Cl)c1` [Example 18, 1-[(1S)-1-(3-chlorophenyl)ethyl]-3-(3-fluoro-1-bicyclo[1.1.1]pentanyl)urea]: 47%; for `O=C(NCc1cccc(F)c1)NC12CC(F)(C1)C2` [Example 19, 1-(3-fluoro-1-bicyclo[1.1.1]pentanyl)-3-[(3-fluorophenyl)methyl]urea]: 49%.
`C[C@H](NC(=O)NC12CC(C)(C1)C2)c1cccc(OC(F)(F)F)c1` [Example 26, 1-(3-methyl-1-bicyclo[1.1.1]pentanyl)-3-[(1S)-1-[3-(trifluoromethoxy)phenyl]ethyl]urea] showed a Kv7.2 max of 58%.
In the case of `O=C(NCc1cccc(C(F)(F)F)c1)NC12CC(F)(C1)C2` [Example 11, 1-(3-fluoro-1-bicyclo[1.1.1]pentanyl)-3-[[3-(trifluoromethyl)phenyl]methyl]urea] it was 80%; in that of `N#Cc1cccc(CNC(=O)NC23CC(F)(C2)C3)c1` [Example 13, 1-[(3-cyanophenyl)methyl]-3-(3-fluoro-1-bicyclo[1.1.1]pentanyl)urea], 48%; in that of `N#Cc1cccc(CNC(=O)NC23CC(C(F)(F)F)(C2)C3)c1F` [Example 47, 1-[(3-cyano-2-fluorophenyl)methyl]-3-[3-(trifluoromethyl)-1-bicyclo[1.1.1]pentanyl]urea], 40%.
In the case of `C[C@H](NC(=O)NC12CC(F)(C1)C2)c1cccc(F)c1` [Example 24, 1-(3-fluoro-1-bicyclo[1.1.1]pentanyl)-3-[(1S)-1-(3-fluorophenyl)ethyl]urea], the Kv7.2 max amounted to 51%.
In the case of `O=C(NCc1cccc(C2COC2)c1)NC12CC(C(F)(F)F)(C1)C2` [Example 30, 1-[[3-(oxetan-3-yl)phenyl]methyl]-3-[3-(trifluoromethyl)-1-bicyclo[1.1.1]pentanyl]urea] it was 65%; in that of `O=C(NCc1cccc(OC(F)F)c1)NC12CC(C1)C2` [Example 43, 1-(1-bicyclo[1.1.1]pentanyl)-3-[[3-(difluoromethoxy)phenyl]methyl]urea], 78%.
`CC(NC(=O)NC12CC(F)(C1)C2)c1cccc(OC(F)F)c1` (centres unmarked) [Example 38, 1-[1-[3-(difluoromethoxy)phenyl]ethyl]-3-(3-fluoro-1-bicyclo[1.1.1]pentanyl)urea] yielded a Kv7.2 max of 40%.
The compound `O=C(NCc1cccc(OC(F)(F)F)c1)NC12CC(C(F)(F)F)(C1)C2` [Example 2, 1-[[3-(trifluoromethoxy)phenyl]methyl]-3-[3-(trifluoromethyl)-1-bicyclo[1.1.1]pentanyl]urea] registered a Kv7.2 max of 70%.
The same measure for `O=C(NCc1cccc(C(F)F)c1)NC12CC(C(F)(F)F)(C1)C2` [Example 31, 1-[[3-(difluoromethyl)phenyl]methyl]-3-[3-(trifluoromethyl)-1-bicyclo[1.1.1]pentanyl]urea]: 60%.
For the compound `C[C@H](NC(=O)NC12CC(C1)C2)c1cccc(C(F)(F)F)c1` [Example 51, 1-(1-bicyclo[1.1.1]pentanyl)-3-[(1S)-1-[3-(trifluoromethyl)phenyl]ethyl]urea], the Kv7.2 max is given as 52%.
The compound `O=C(NCc1cccc(SC(F)(F)F)c1)NC12CC(F)(C1)C2` [Example 50, 1-(3-fluoro-1-bicyclo[1.1.1]pentanyl)-3-[[3-(trifluoromethylsulfanyl)phenyl]methyl]urea] showed a Kv7.2 max of 72%.
As to `O=C(NCc1cccc(Cl)c1)NC12CC(C1)C2` [Example 41, 1-(1-bicyclo[1.1.1]pentanyl)-3-[(3-chlorophenyl)methyl]urea], the Kv7.2 max is 49%.
In the case of `O=C(N[C@@H](CO)c1cccc(C(F)(F)F)c1)NC12CC(C1)C2` [Example 54, 1-(1-bicyclo[1.1.1]pentanyl)-3-[(1R)-2-hydroxy-1-[3-(trifluoromethyl)phenyl]ethyl]urea] it was 78%.
In the case of `COc1cccc([C@H](C)NC(=O)NC23CC(F)(C2)C3)c1` [Example 8, 1-(3-fluoro-1-bicyclo[1.1.1]pentanyl)-3-[(1S)-1-(3-methoxyphenyl)ethyl]urea] it was 57%.
